# Measurements published in patent US20260001849A1, “NOVEL B0AT1 INHIBITOR” (MITSUBISHI TANABE PHARMA CORPORATION, priority 2023, published 2026).
# Target: T1, Human BOAT1 (Homo sapiens, UniProt Q695T7)
# T1 construct: expressed in transfected cells
# T1 sequence (Q695T7 1-634): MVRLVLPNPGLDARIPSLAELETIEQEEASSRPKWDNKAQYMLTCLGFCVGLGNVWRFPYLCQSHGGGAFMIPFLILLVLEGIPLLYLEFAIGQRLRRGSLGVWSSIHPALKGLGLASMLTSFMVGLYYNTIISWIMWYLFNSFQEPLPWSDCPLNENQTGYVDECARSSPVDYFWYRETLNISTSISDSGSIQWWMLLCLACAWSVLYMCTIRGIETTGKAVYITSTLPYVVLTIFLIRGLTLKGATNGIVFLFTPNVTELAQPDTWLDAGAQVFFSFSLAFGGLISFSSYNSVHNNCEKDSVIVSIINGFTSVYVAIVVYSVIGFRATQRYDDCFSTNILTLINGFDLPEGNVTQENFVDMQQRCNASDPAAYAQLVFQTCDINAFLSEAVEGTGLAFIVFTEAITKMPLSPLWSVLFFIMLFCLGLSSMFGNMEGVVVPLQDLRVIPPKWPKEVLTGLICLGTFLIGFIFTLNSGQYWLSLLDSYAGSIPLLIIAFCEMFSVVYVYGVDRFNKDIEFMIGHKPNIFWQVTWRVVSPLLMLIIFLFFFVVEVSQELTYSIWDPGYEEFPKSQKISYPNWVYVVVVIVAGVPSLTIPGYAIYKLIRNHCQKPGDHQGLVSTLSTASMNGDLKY
# Assay: hBOAT1 inhibitory test (phenylalanine uptake)
# Assay type: cell-based
# Settings: Human BOAT1 stable expression CHO cells; [3H]-L-phenylalanine uptake, phenylalanine 0.25 mM; radioactivity after 100 to 200 min; read-out: hB0AT1 IC50
# Experimental: A test compound dissolved in dimethyl sulfoxide (DMSO) was added to a 96 well plate for solid phase radioactivity measurement containing a scintillator at the bottom of the well (final concentration of DMSO 0.5%). DMSO alone as a control and DMSO containing N-(4-bromophenyl)-3,5-dichloro-2-hydroxybenzamide (final concentration […]) for the measurement of BOAT1 non-specific uptake were similarly added at 0.5 μL per well. Human BOAT1 stable expression CHO cells suspended in a buffer (buffer containing 96 mM sodium chloride, 2 mM potassium chloride, 1.8 mM calcium chloride, 1 mM magnesium chloride, 0.01% bovine serum albumin, and 10 mM 2-[4-(2-hydroxyethyl)-1-piperazinyl]ethanesulfonic acid) were added by 90 μL to 75000 cells/well. After standing at ordinary temperature for 30 min or longer, the cells were subjected to a phenylalanine uptake experiment. A buffer containing L-phenylalanine and [3,4,5-3H]-L-phenylalanine was added by 10 μL per well (final concentration of phenylalanine 0.25 mM), and the radioactivity of the plate bottom surface at ordinary temperature was measured with a scintillation counter over time, and the radioactivity value after 100 to 200 min was analyzed.
row,Compound,IC50
1,O=C(O)Cc1cc2c(cc1Cl)CN(C(=O)CNC(=O)/C=C/c1ccc(C(F)(F)F)cc1F)CC2 [I-221],71 nM
2,N#Cc1cc2c(cc1CC(=O)O)CCN(C(=O)CNC(=O)/C=C/c1ccc(I)cc1)C2 [I-222],107 nM
3,CCC(F)(F)c1ccc(/C=C/C(=O)NCC(=O)N2CCc3cc(CC(=O)O)ccc3C2)cc1 [I-227],667 nM
4,O=C(O)CCCCc1ccc2c(c1)CCN(C(=O)CNC(=O)/C=C/c1ccc(C(F)(F)F)cc1)C2 [I-228],462 nM
5,O=C(/C=C/c1ccc(C(F)(F)F)cc1)NCC(=O)N1CCCC(C23CCC(C2)C3C(=O)O)C1 (centres unmarked) [I-229],152 nM
6,Cc1cc2c(cc1CC(=O)O)CCN(C(=O)CNC(=O)/C=C/c1ccc(C(F)(F)F)cc1)C2 [I-230],124 nM
7,O=C(O)CCc1cccc2c1CCN2C(=O)CNC(=O)/C=C/c1ccc(C(F)(F)F)cc1F [I-245],45 nM
8,O=C(O)CCc1cccc2c1CCN2C(=O)CNC(=O)/C=C/c1ccc(C(F)(F)F)cc1 [I-246],44 nM
9,O=C(/C=C/c1ccc(C(F)(F)F)cc1F)NCC(=O)N1CCN(Cc2ccc(C(=O)O)cc2)CC1c1ccc(Cl)cc1 (centres unmarked) [I-251],366 nM
10,C[C@H]1CN(CCCC(=O)O)C[C@H](c2ccccc2)N1C(=O)CNC(=O)/C=C/c1ccc(C(F)(F)F)cc1F [I-370],143 nM
11,C[C@@H]1CN(CCCC(=O)O)C[C@H](c2ccccc2)N1C(=O)CNC(=O)/C=C/c1ccc(C(F)(F)F)cc1F [I-371],3380 nM
12,CNC(=O)Cc1cnn2c1CN(C(=O)CNC(=O)/C=C/c1ccc(C(F)(F)F)cc1)CC2 [I-374],54 nM
13,CNC(=O)Cc1nc2c(s1)CCN(C(=O)CNC(=O)/C=C/c1ccc(C(F)(F)F)cc1F)C2 [I-376],77 nM
14,CNC(=O)Cc1ccc2c(n1)CCN(C(=O)CNC(=O)/C=C/c1ccc(C(F)(F)F)cc1)C2 [I-377],48 nM
15,"O=C(/C=C/c1ccc(C(F)(F)F)cc1F)NCC(=O)N1CCc2cc(Cc3nn[nH]n3)cc(Cl)c2C1 [I-378, (E)-N-[2-[8-chloro-6-(1,2,3λ4,4-tetraazacyclopenta-2,4-dien-5-ylmethyl)-3,4-dihydro-1H-isoquinolin-2-yl]-2-oxoethyl]-3-[2-fluoro-4-(trifluoromethyl)phenyl]prop-2-enamide]",232 nM
16,"C[C@@H]1CN(C(=O)CNC(=O)/C=C/c2ccc(C(F)(F)F)cc2F)[C@@H](c2ccccc2)CN1CCCc1nn[nH]n1 [I-379, (E)-3-[2-fluoro-4-(trifluoromethyl)phenyl]-N-[2-[(2S,5R)-4-[3-(1,2,3λ4,4-tetraazacyclopenta-2,4-dien-5-yl)propyl]-5-methyl-2-phenylpiperazin-1-yl]-2-oxoethyl]prop-2-enamide]",2520 nM
17,"C[C@@H]1CN(C(=O)CNC(=O)/C=C/c2ccc(C(F)(F)F)cc2F)[C@@H](c2ccc(C3CC3)cc2)CN1CCC(=O)O [I-382, 3-[(2R,5S)-5-(4-cyclopropylphenyl)-4-[2-[[(E)-3-[2-fluoro-4-(trifluoromethyl)phenyl]prop-2-enoyl]amino]acetyl]-2-methylpiperazin-1-yl]propanoic acid]",63 nM

# Same assay, conditions: Human BOAT1 stable expression CHO cells; phenylalanine uptake, phenylalanine 0.25 mM; read-out: hB0AT1 IC50
row,Compound,IC50
1,CC(C)(CCN1CCN(C(=O)CNC(=O)/C=C/c2ccc(C(F)(F)F)cc2F)C(c2ccc(Cl)cc2)C1)C(=O)O (centres unmarked) [I-254],97 nM
2,O=C(O)CCCN1CCN(C(=O)CNC(=O)/C=C/c2ccc(C(F)(F)F)cc2F)C(c2cccc(C3CC3)c2)C1 (centres unmarked) [I-256],48 nM
3,CN1CCN(C(=O)CNC(=O)/C=C/c2ccc(C(F)(F)F)cc2F)CC1c1cccc(C(=O)O)c1 (centres unmarked) [I-258],1330 nM
4,CC1(C)CN(C(=O)CNC(=O)/C=C/c2ccc(C(F)(F)F)cc2F)[C@@H](c2ccccc2)CN1CCCC(=O)O [I-259],140 nM
5,O=C(O)Cc1ccccc1C1=CCCN(C(=O)CNC(=O)/C=C/c2ccc(C(F)(F)F)cc2F)C1 [I-260],638 nM
6,O=C(O)CCCN1CCN(C(=O)CNC(=O)/C=C/c2ccc(C(F)(F)F)cc2F)C(c2cccc(C(F)(F)F)c2)C1 (centres unmarked) [I-262],125 nM
7,O=C(O)CCCN1CCN(C(=O)CNC(=O)/C=C/c2ccc(C(F)(F)F)cc2F)[C@@H](c2ccc(C3CC3)cc2)C1 [I-263],18 nM
8,"NC(=O)Cc1ccc2c(c1)CCN(C(=O)CNC(=O)/C=C/c1ccc(C(F)(F)F)cc1)C2 [I-273, (E)-N-[2-[6-(2-amino-2-oxoethyl)-3,4-dihydro-1H-isoquinolin-2-yl]-2-oxoethyl]-3-[4-(trifluoromethyl)phenyl]prop-2-enamide]",22 nM
9,O=C(/C=C/c1ccc(C(F)(F)F)cc1)NCC(=O)N1CCn2ncc(CCC(=O)N3CCCC3)c2C1 [I-274],34 nM
10,CN(C)C(=O)CCc1cnn2c1CN(C(=O)CNC(=O)/C=C/c1ccc(C(F)(F)F)cc1)CC2 [I-275],78 nM
11,NC(=O)Cc1cc(F)c2c(c1)CCN(C(=O)CNC(=O)/C=C/c1ccc(C(F)(F)F)cc1)C2 [I-276],17 nM
12,CNC(=O)Cc1ccc2c(c1)CCN(C(=O)CNC(=O)/C=C/c1ccc(C(F)(F)F)cc1)C2 [I-277],30 nM
13,NC(=O)Cc1ccc2c(c1)CN(C(=O)CNC(=O)/C=C/c1ccc(C(F)(F)F)cc1)CC2 [I-278],40 nM
14,CN(C)C(=O)Cc1cc(Cl)c2c(c1)CCN(C(=O)CNC(=O)/C=C/c1ccc(C(F)(F)F)cc1F)C2 [I-279],21 nM
15,O=C(/C=C/c1ccc(C(F)(F)F)cc1F)NCC(=O)N1CCc2cc(CC(=O)NCCO)cc(Cl)c2C1 [I-280],19 nM
16,CONC(=O)Cc1cc(Cl)c2c(c1)CCN(C(=O)CNC(=O)/C=C/c1ccc(C(F)(F)F)cc1F)C2 [I-281],7 nM
17,CNC(=O)Cn1cc2c(n1)CN(C(=O)CNC(=O)/C=C/c1ccc(C(F)(F)F)cc1)CC2 [I-282],700 nM
18,CNC(=O)Cn1ncc2c1CN(C(=O)CNC(=O)/C=C/c1ccc(C(F)(F)F)cc1)CC2 [I-283],256 nM

row,Compound,IC50
1,CNC(=O)Cc1nc2c(s1)CN(C(=O)CNC(=O)/C=C/c1ccc(C(F)(F)F)cc1F)CC2 [I-284],25 nM
2,C[C@@H]1CN(C(=O)CNC(=O)/C=C/c2ccc(C(F)(F)F)cc2F)[C@@H](c2ccccc2)CN1CC#CC(=O)O [I-320],352 nM
3,CNC(=O)Cc1cc(CC(=O)O)cc2c1CN(C(=O)CNC(=O)/C=C/c1ccc(C(F)(F)F)cc1F)CC2 [I-336],661 nM
4,C[C@@H]1CN(C(=O)CNC(=O)/C=C/c2ccc(C(F)(F)F)cc2F)[C@@H](c2ccccc2)CN1CCC(C)(C)C(=O)O [I-344],122 nM
5,CC(CCN1C[C@H](c2ccccc2)N(C(=O)CNC(=O)/C=C/c2ccc(C(F)(F)F)cc2F)C[C@H]1C)C(=O)O (some centres unmarked) [I-345],1780 nM
6,C[C@@H]1CN(C(=O)CNC(=O)/C=C/c2ccc(C(F)(F)F)cc2F)[C@@H](c2ccccc2)CN1CC(C)(C)C(=O)O [I-346],1040 nM
7,CC(CN1C[C@H](c2ccccc2)N(C(=O)CNC(=O)/C=C/c2ccc(C(F)(F)F)cc2F)C[C@H]1C)C(=O)O (some centres unmarked) [I-347],2690 nM
8,C[C@H]1[C@H](c2ccccc2)N(C(=O)CNC(=O)/C=C/c2ccc(C(F)(F)F)cc2F)CCN1CCCC(=O)O [I-352],3260 nM
9,C[C@@H]1CN(C(=O)CNC(=O)/C=C/c2ccc(C(F)(F)F)cc2F)[C@@H](c2cccs2)CN1CCCC(=O)O [I-357],107 nM
10,CN1CCN(C(=O)CNC(=O)/C=C/c2ccc(C(F)(F)F)cc2F)CC1c1cccc(CC(=O)O)c1 (centres unmarked) [I-358],223 nM
11,O=C(/C=C/c1ccc(C(F)(F)F)cc1F)NCC(=O)N1CCCC(N2CC[C@@H](C(=O)O)C2)C1 (some centres unmarked) [I-359],1110 nM
12,O=C(/C=C/c1ccc(C(F)(F)F)cc1F)NCC(=O)N1CCCC(N2CC[C@H](C(=O)O)C2)C1 (some centres unmarked) [I-360],2860 nM
13,O=C(O)C[C@H]1CCN(C2CCCN(C(=O)CNC(=O)/C=C/c3ccc(C(F)(F)F)cc3F)C2)C1 (some centres unmarked) [I-361],879 nM
14,O=C(O)C[C@@H]1CCN(C2CCCN(C(=O)CNC(=O)/C=C/c3ccc(C(F)(F)F)cc3F)C2)C1 (some centres unmarked) [I-362],1400 nM
15,O=C(O)CCCN1CCN(C(=O)CNC(=O)/C=C/c2ccc(C(F)(F)F)cc2F)C(C2CCCCC2)C1 (centres unmarked) [I-365],69 nM
16,O=C(O)CCCN1C[C@H](c2ccccc2)N(C(=O)CNC(=O)/C=C/c2ccc(C(F)(F)F)cc2F)C[C@H]1C(F)(F)F [I-399],2890 nM
17,O=C(O)CCCN1CCN(C(=O)CNC(=O)/C=C/c2ccc(C(F)(F)F)cc2F)C(c2noc3ccccc23)C1 (centres unmarked) [I-400],292 nM
18,O=C(O)CCCN1CCN(C(=O)CNC(=O)C=Cc2ccc(C(F)(F)F)cc2F)C(c2nc(-c3ccccc3)no2)C1 (centres unmarked) [I-402],235 nM
